pIC50: −log10 of the molar value. Counter-ions that a name gives are not always drawn.
Molecular target: T1, HIV integrase (Human immunodeficiency virus type 1 group M subtype B, UniProt P12497, F1332H)
T1 construct: HIV integrase full length gene (J. Virol., 67, 425-437 (1993)) in which phenylalanine at codon 185 was substituted by histidine; made in house; host or cells: Escherichia coli BL21(DE3)
Assay: Determination of enzyme (HIV integrase) inhibitory activity
Format: biochemical
Details: recombinant integrase protein (F185H), donor DNA/target DNA, absorbance at 450 nm
Procedure, shortened: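 Full-length HIV integrase bearing F185H mutation, E. coli-expressed and purified, preincubated with compound on plate-bound biotinylated donor DNA for 60 min at 37 °C; digoxigenin-labelled target DNA then added for 10 min. Strand transfer detected by peroxidase anti-digoxigenin ELISA at 450 nm; IC50 from inhibition versus no-compound and no-enzyme controls.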

Row | SMILES | pIC50
1 | CC(=O)N1CCC(Oc2cc3c(cc2Cc2cccc(Cl)c2F)c(=O)c(C(=O)O)cn3[C@H](CO)C(C)C)CC1 [Example 4-45, 7-((1-acetylpiperidin-4-yl)oxy)-6-(3-chloro-2-fluorobenzyl)-1-((1S)-1-(hydroxymethyl)-2-methylpropyl)-4-oxo-1,4-dihydroquinoline-3-carboxylic acid] | 7.89
2 | CC(C)[C@@H](CO)n1cc(C(=O)O)c(=O)c2cc(Cc3cccc(Cl)c3F)c(O[C@H]3CCNC3)cc21 [Example 4-46, 6-(3-chloro-2-fluorobenzyl)-1-((1S)-1-(hydroxymethyl)-2-methylpropyl)-4-oxo-7-((3S)-pyrrolidin-3-yloxy)-1,4-dihydroquinoline-3-carboxylic acid hydrochloride] | 8.17
3 | CC(C)[C@@H](CO)n1cc(C(=O)O)c(=O)c2cc(Cc3cccc(Cl)c3F)c(O[C@H]3CCOC3)cc21 [Example 4-47, 6-(3-chloro-2-fluorobenzyl)-1-((1S)-1-(hydroxymethyl)-2-methylpropyl)-4-oxo-7-((3S)-tetrahydrofuran-3-yloxy)-1,4-dihydroquinoline-3-carboxylic acid] | 8.18
4 | CC(C)[C@@H](CO)n1cc(C(=O)O)c(=O)c2cc(Cc3cccc(Cl)c3F)c(O[C@@H]3CCOC3)cc21 [Example 4-48, 6-(3-chloro-2-fluorobenzyl)-1-((1S)-1-(hydroxymethyl)-2-methylpropyl)-4-oxo-7-((3R)-tetrahydrofuran-3-yloxy)-1,4-dihydroquinoline-3-carboxylic acid] | 8.25
5 | CC(C)[C@@H](CO)n1cc(C(=O)O)c(=O)c2cc(Cc3cccc(Cl)c3F)c(OCCNS(C)(=O)=O)cc21 [Example 4-49, 6-(3-chloro-2-fluorobenzyl)-1-((1S)-1-(hydroxymethyl)-2-methylpropyl)-7-(2-(mesylamino)ethoxy)-4-oxo-1,4-dihydroquinoline-3-carboxylic acid] | 8.29
6 | CC(C)[C@@H](CO)n1cc(C(=O)O)c(=O)c2cc(Cc3cccc(Cl)c3F)c(OCC(=O)O)cc21 [Example 4-50, 7-(carboxymethoxy)-6-(3-chloro-2-fluorobenzyl)-1-((1S)-1-(hydroxymethyl)-2-methylpropyl)-4-oxo-1,4-dihydroquinoline-3-carboxylic acid] | 8.28
7 | CC(C)[C@@H](CO)n1cc(C(=O)O)c(=O)c2cc(Cc3cccc(Cl)c3F)c(OCCN3CCN(C)CC3)cc21 [Example 4-51, 6-(3-chloro-2-fluorobenzyl)-1-((1S)-1-(hydroxymethyl)-2-methylpropyl)-7-(2-(4-methylpiperazin-1-yl)ethoxy)-4-oxo-1,4-dihydroquinoline-3-carboxylic acid ditrifluoroacetate] | 8.22
8 | CC(C)[C@@H](CO)n1cc(C(=O)O)c(=O)c2cc(Cc3cccc(Cl)c3F)c(OCS(N)(=O)=O)cc21 [Example 4-52, 7-((aminosulfonyl)methoxy)-6-(3-chloro-2-fluorobenzyl)-1-((1S)-1-(hydroxymethyl)-2-methylpropyl)-4-oxo-1,4-dihydroquinoline-3-carboxylic acid] | 8.18
9 | CC(C)[C@@H](CO)n1cc(C(=O)O)c(=O)c2cc(Cc3cccc(Cl)c3F)c(OCC(=O)N(C)C)cc21 [Example 4-53, 6-(3-chloro-2-fluorobenzyl)-7-((dimethylaminocarbonyl)methoxy)-1-((1S)-1-(hydroxymethyl)-2-methylpropyl)-4-oxo-1,4-dihydroquinoline-3-carboxylic acid] | 8.30
10 | CC(C)[C@@H](CO)n1cc(C(=O)O)c(=O)c2cc(Cc3cccc(Cl)c3F)c(O[C@H]3CCN(C)C3)cc21 [Example 4-54, 6-(3-chloro-2-fluorobenzyl)-1-((1S)-1-(hydroxymethyl)-2-methylpropyl)-7-((3S)-1-methylpyrrolidin-3-yloxy)-4-oxo-1,4-dihydroquinoline-3-carboxylic acid trifluoroacetate] | 8.15
11 | CC(C)[C@@H](CO)n1cc(C(=O)O)c(=O)c2cc(Cc3cccc(Cl)c3F)c(O[C@@H]3CCN(C)C3)cc21 [Example 4-55, 6-(3-chloro-2-fluorobenzyl)-1-((1S)-1-(hydroxymethyl)-2-methylpropyl)-7-((3R)-1-methylpyrrolidin-3-yloxy)-4-oxo-1,4-dihydroquinoline-3-carboxylic acid trifluoroacetate] | 8.12
12 | CC(C)[C@@H](CO)n1cc(C(=O)O)c(=O)c2cc(Cc3cccc(Cl)c3F)c(OCc3ccc(C#N)cc3)cc21 [Example 4-56, 6-(3-chloro-2-fluorobenzyl)-7-(4-cyanobenzyloxy)-1-((1S)-1-(hydroxymethyl)-2-methylpropyl)-4-oxo-1,4-dihydroquinoline-3-carboxylic acid] | 8.30
13 | CC(C)[C@@H](CO)n1cc(C(=O)O)c(=O)c2cc(Cc3cccc(Cl)c3F)c(OCc3ccc(C(=O)O)cc3)cc21 [Example 4-57, 7-(4-carboxybenzyloxy)-6-(3-chloro-2-fluorobenzyl)-1-((1S)-1-(hydroxymethyl)-2-methylpropyl)-4-oxo-1,4-dihydroquinoline-3-carboxylic acid] | 8.42
14 | CC(C)[C@@H](CO)n1cc(C(=O)O)c(=O)c2cc(Cc3cccc(Cl)c3F)c(OCc3ccc(C(N)=O)cc3)cc21 [Example 4-58, 7-(4-(aminocarbonyl)benzyloxy)-6-(3-chloro-2-fluorobenzyl)-1-((1S)-1-(hydroxymethyl)-2-methylpropyl)-4-oxo-1,4-dihydroquinoline-3-carboxylic acid] | 8.33
15 | CC(C)[C@@H](CO)n1cc(C(=O)O)c(=O)c2cc(Cc3cccc(Cl)c3F)c(OCc3ccccn3)cc21 [Example 4-59, 6-(3-chloro-2-fluorobenzyl)-1-((1S)-1-(hydroxymethyl)-2-methylpropyl)-4-oxo-7-(pyridin-2-ylmethoxy)-1,4-dihydroquinoline-3-carboxylic acid] | 8.44
16 | CC(C)[C@@H](CO)n1cc(C(=O)O)c(=O)c2cc(Cc3cccc(Cl)c3F)c(OCc3ccncc3)cc21 [Example 4-60, 6-(3-chloro-2-fluorobenzyl)-1-((1S)-1-(hydroxymethyl)-2-methylpropyl)-4-oxo-7-(pyridin-4-ylmethoxy)-1,4-dihydroquinoline-3-carboxylic acid] | 8.37
17 | CC(C)[C@@H](CO)n1cc(C(=O)O)c(=O)c2cc(Cc3cccc(Cl)c3F)c(OCc3cccnc3)cc21 [Example 4-61, 6-(3-chloro-2-fluorobenzyl)-1-((1S)-1-(hydroxymethyl)-2-methylpropyl)-4-oxo-7-(pyridin-3-ylmethoxy)-1,4-dihydroquinoline-3-carboxylic acid] | 8.31
18 | CC(C)[C@@H](CO)n1cc(C(=O)O)c(=O)c2cc(Cc3cccc(Cl)c3F)c(OCC(F)(F)F)cc21 [Example 4-62, 6-(3-chloro-2-fluorobenzyl)-1-((1S)-1-(hydroxymethyl)-2-methylpropyl)-4-oxo-7-(2,2,2-trifluoroethyloxy)-1,4-dihydroquinoline-3-carboxylic acid] | 8.26
19 | CC(C)[C@@H](CO)n1cc(C(=O)O)c(=O)c2cc(Cc3cccc(Cl)c3F)c(OCc3ccc(S(N)(=O)=O)cc3)cc21 [Example 4-63, 7-(4-(aminosulfonyl)benzyloxy)-6-(3-chloro-2-fluorobenzyl)-1-((1S)-1-(hydroxymethyl)-2-methylpropyl)-4-oxo-1,4-dihydroquinoline-3-carboxylic acid] | 8.44
20 | CC(C)[C@@H](CO)n1cc(C(=O)O)c(=O)c2cc(Cc3cccc(Cl)c3F)c(OC3CCN(S(C)(=O)=O)CC3)cc21 [Example 4-64, 6-(3-chloro-2-fluorobenzyl)-1-((1S)-1-(hydroxymethyl)-2-methylpropyl)-7-(1-mesylpiperidin-4-yloxy)-4-oxo-1,4-dihydroquinoline-3-carboxylic acid] | 8.18
21 | CC(C)[C@H]1COc2cc(Cc3cccc(Cl)c3F)cc3c(=O)c(C(=O)O)cn1c23 [Example 5-1, (3S)-8-(3-chloro-2-fluorobenzyl)-3-isopropyl-6-oxo-2,3-dihydro-6H-1-oxa-3a-aza-phenalene-5-carboxylic acid] | 6.80
22 | O=C(O)c1cn2c3c(cc(Cc4cccc(Cl)c4F)cc3c1=O)OCC2CO (stereo not drawn) [Example 5-2, 8-(3-chloro-2-fluorobenzyl)-3-hydroxymethyl-6-oxo-2,3-dihydro-6H-1-oxa-3a-aza-phenalene-5-carboxylic acid] | 7.33
23 | CC(C)[C@@H](CO)n1cc(C(=O)O)c(=O)c2cc(Cc3cccc(Cl)c3F)c3c(c21)OCCO3 [Example 6-1, 10-(3-chloro-2-fluorobenzyl)-5-((1S)-1-hydroxymethyl-2-methylpropyl)-8-oxo-2,3,5,8-tetrahydro-1,4-dioxa-5-aza-phenanthrene-7-carboxylic acid] | 8.23
24 | COc1cc2c(cc1Cc1c(F)cccc1Cl)c(=O)c(C(=O)O)cn2[C@H](CO)C(C)C [Example 7-1, 6-(2-chloro-6-fluorobenzyl)-1-((1S)-1-(hydroxymethyl)-2-methylpropyl)-7-methoxy-4-oxo-1,4-dihydroquinoline-3-carboxylic acid] | 7.77
25 | COc1cc2c(cc1Cc1cccc(Cl)c1Cl)c(=O)c(C(=O)O)cn2[C@H](CO)C(C)C [Example 7-2, 6-(2,3-dichlorobenzyl)-1-((1S)-1-(hydroxymethyl)-2-methylpropyl)-7-methoxy-4-oxo-1,4-dihydroquinoline-3-carboxylic acid] | 8.35
26 | CC(C)[C@@H](CO)n1cc(C(=O)O)c(=O)c2cc(Cc3cccc(Cl)c3F)c(OCCO)cc21 [Example 7-3, 6-(3-chloro-2-fluorobenzyl)-7-(2-hydroxyethoxy)-1-((1S)-1-(hydroxymethyl)-2-methylpropyl)-4-oxo-1,4-dihydroquinoline-3-carboxylic acid] | 8.46
27 | CC(C)[C@@H](CO)n1cc(C(=O)O)c(=O)c2cc(Cc3cccc(Cl)c3F)c(OCCCO)cc21 [Example 7-4, 6-(3-chloro-2-fluorobenzyl)-1-((1S)-1-(hydroxymethyl)-2-methylpropyl)-7-(3-hydroxypropoxy)-4-oxo-1,4-dihydroquinoline-3-carboxylic acid] | 8.44
